Experimental data taken from publication PMC13083723 (Patterns, 2026).
Residues, ends and D or L forms follow the SMILES beside them.

What follows are molecules tested on Vero-E6 cells (assay: cells). Conditions: not given.
Format: cell-based

First: Ac-PHSCN-NH2 [SPE_K00521308]
Second: C[C@@H](O)[C@H](N)C(=O)N1CCC[C@H]1C(=O)N1CCC[C@H]1C(=O)N[C@H](C(N)=O)[C@@H](C)O [SPE_K02206208] (H-TPPT-NH2)
The PL_Result of the first is higher: -0.965 for the first, -5.35 for the second.

Same assay, conditions: Chlorocebus sabaeus, Vero C1008, 24 h, read-out: PL_Result

Compared with `CCC(N)C(O)c1ccc(O)c(O)c1` (stereo not drawn) [SPE_A68509429], `CC(CCc1ccccc1)NC(C)C(O)c1ccc(O)cc1` (stereo not drawn) [SPE_A36267905] is higher in activation at 10 µM: -8.71% for the first, -4.99% for the second.

First: O=C(NC[C@H](O)CN1CCc2ccccc2C1)c1cc(NC2COC2)ncn1 [SPE_K70446295]
Second: O=C(O)CCNc1cc(N2CCc3ccccc3CC2)nc(-c2ccccn2)n1 [SPE_K32847255]
The activation at 10 µM of the first is higher: -3.31% for the first, -5.77% for the second.

First: CC(=O)O[C@]1(C(C)=O)CC[C@H]2[C@@H]3C[C@H](C)C4=CC(=O)C=C[C@]4(C)[C@@]3(F)[C@@H](O)C[C@@]21C [SPE_K02528732]
Second: CC(=O)O[C@H]1C[C@@]2(C)[C@@H](C[C@@H](O)C3[C@]2(C)CC[C@H]2[C@H](C)[C@H](O)CC[C@]32C)/C1=C(/CCC=C(C)C)C(=O)O (stereo partly drawn) [SPE_A06935312]
The activation at 10 µM of the first is higher: -9.55% for the first, -11.6% for the second.

Compared with `C[C@@H]1CN(Cc2ncccn2)C[C@H]1c1nc2c(cnn2C2CCOCC2)c(=O)[nH]1` [SPE_K50031829], `CCN1CCC(n2cc(CNc3cc(Cl)c4ncc(C#N)c(Nc5ccc(F)c(Cl)c5)c4c3)nn2)CC1` [SPE_K49468759] is higher in activation at 10 µM: -10.7% for the first, 33.2% for the second.

Compared with `CN1CCN(c2nc(C3=C(c4c[nH]c5ccccc45)C(=O)NC3=O)c3ccccc3n2)CC1` [SPE_K16761703], `O=C1NC(=O)c2c1c1c3ccccc3[nH]c1c1[nH]c3ccccc3c21` [SPE_K72726508] is lower in activation at 10 µM: 37.5% for the first, 12.7% for the second.

Going from `Cc1ccsc1/C=C/C1=NCCCN1C` [SPE_K71454870] to `CN1CCN(CCc2ccc(Cl)c(Cl)c2)CC1` [SPE_K29668683], the activation at 10 µM rises from -13.8% to 11.7%.

Going from `Nc1nnc2[nH]c3ccccc3nc1-2` [SPE_K87932577] to `COc1cc([S+](C)[O-])ccc1-c1nc2ncccc2[nH]1` (stereo not drawn) [SPE_A22081593], the activation at 10 µM falls from -2.99% to -4.2%.

First: Cc1c(C(=O)NCc2cccnc2)nn(-c2ccc(Cl)cc2Cl)c1-c1ccc(Cl)cc1 [SPE_K71315565]
Second: O=C(NC(Cc1c[nH]c2ccccc12)C(=O)O)c1ccc(Cl)cc1 (stereo not drawn) [SPE_A87983072]
The activation at 10 µM of the first is higher: 4.2% for the first, -4.45% for the second.

Going from `O=C(Nc1cc(Cl)cc(Cl)c1O)c1c(O)c(Cl)cc(Cl)c1Cl` [SPE_K07283971] to `O=c1c(-c2ccc(O)cc2)coc2cc(O)cc(O)c12` [SPE_K43797669], the activation at 10 µM rises from -4.07% to 24.8%.

First: CC(C(=O)O)c1cccc(Oc2ccccc2)c1 (stereo not drawn) [SPE_A81129465]
Second: COc1cccc(NC(=O)/C=C/c2ccc(Cl)cc2)c1 [SPE_K61536336]
The activation at 10 µM of the first is higher: 5.17% for the first, -7.48% for the second.

Compared with `NC[C@@H]1CC[C@@H](N)[C@@H](O[C@H]2[C@H](O)[C@@H](O[C@H]3O[C@H](CO)[C@@H](O)[C@H](N)[C@H]3O)[C@H](N)C[C@@H]2N)O1` [SPE_K48427910], `NC(=O)C1=CN([C@@H]2O[C@H](COP(=O)(O)OP(=O)(O)OC[C@H]3O[C@@H](n4cnc5c(N)ncnc54)[C@H](OP(=O)(O)O)[C@@H]3O)[C@@H](O)[C@H]2O)C=CC1` [SPE_M06409173] is higher in activation at 10 µM: -9.88% for the first, -2.48% for the second.

Going from `CC[N+](CC)(CC)CC(=O)Nc1c(C)cccc1C` [SPE_K56596464] to `CC[N+](CC)(CC)CCOc1ccc(/C=C/c2ccccc2)cc1` [SPE_K03128577], the activation at 10 µM rises from -0.251% to 8.41%.

Going from `C[C@@H](c1ccc2nccn2c1)n1nnc2ncc(-c3cnn(C)c3)nc21` [SPE_K98028353] to `CCN1C(=O)CN=C2NC=C(c3ccc(-c4nnc[nH]4)nc3C)N=C21` [SPE_K16755045], the activation at 10 µM rises from -4.44% to 5.12%.

Going from `O=c1n(CCCN2CCN(c3cccc(Cl)c3)CC2)nc2ccccn12` [SPE_K70778732] to `COc1ccccc1N1CCN(CCCCN2C(=O)c3ccccc3C2=O)CC1` [SPE_K69195780], the activation at 10 µM rises from -8.41% to -5.05%.

Compared with `COc1cc2c(cc1OC)-c1cc3ccc(OC)c(OC)c3c[n+]1CC2` [SPE_K58466253], `COc1ccc(CCN(C)CCCN2CCc3cc(OC)c(OC)cc3CC2=O)cc1OC` [SPE_K92446736] is lower in activation at 10 µM: 0.986% for the first, -9.23% for the second.

First: COc1cc(OC)c(OC)cc1C=O [SPE_K88219015]
Second: COc1cc2c(cc1OC)C(c1ccc(N)cc1)=NNC(=O)C2 [SPE_K42859542]
The activation at 10 µM of the first is lower: -0.692% for the first, 0.928% for the second.

Going from `Cc1cc2nc3c(=O)[nH]c(=O)nc-3n(C)c2cc1C=O` [SPE_K00486786] to `Cc1cc(C)nc(NS(=O)(=O)c2ccc(NC(=S)NC(=O)COc3ccc(Br)cc3Cl)cc2)n1` [SPE_K22829793], the activation at 10 µM rises from -6.31% to -2.21%.

Compared with `Cc1cccc(C)c1NC(=O)CN1CCN(CCCC(c2ccc(F)cc2)c2ccc(F)cc2)CC1` [SPE_K62996583], `COc1ccccc1N1CCN(CCCCNC(=O)c2ccc3ccccc3c2)CC1` [SPE_K17378184] is lower in activation at 10 µM: 90.9% for the first, 28.8% for the second.

Compared with `O=c1oc(-c2ccc(C(F)(F)F)cc2)nn1Cc1cc(Cl)ccc1O` [SPE_K95609758], `Oc1nc(-c2ccc(C(F)(F)F)cc2)nc2c1CSCC2` [SPE_K12762134] is lower in activation at 10 µM: 5.3% for the first, -6.13% for the second.

Compared with `C=CC(=O)Nc1cc(Nc2nccc(-c3c[nH]c4ccccc34)n2)c(OC)cc1N(C)CCN(C)C` [SPE_K81958169], `Cc1csc(-c2nnc(Nc3ccc(Oc4ncccc4-c4ccnc(N)n4)cc3)c3ccccc23)c1` [SPE_K21728777] is lower in activation at 10 µM: 5.71% for the first, -11.5% for the second.

First: O=C(O)CCCCN(CCc1ccccc1OCc1ccc(CCc2ccccc2)cc1)Cc1ccc(C(=O)O)cc1 [SPE_K73440166]
Second: O=C(COc1ccc(C(=O)c2ccccc2)cc1)NC1CCN(Cc2ccccc2)CC1 [SPE_K68810443]
The activation at 10 µM of the first is higher: 2.18% for the first, -3.96% for the second.

Compared with `CN1CCC[C@@H]1Cc1c[nH]c2ccc(CCS(=O)(=O)c3ccccc3)cc12` [SPE_K30652337], `CN1c2ccccc2C(=O)N2CCc3c([nH]c4ccccc34)C21` (stereo not drawn) [SPE_A68631409] is lower in activation at 10 µM: 1.82% for the first, -12.1% for the second.

Going from `C=CCN1C[C@H](C(=O)N(CCCN(C)C)C(=O)NCC)C[C@@H]2c3cccc4[nH]cc(c34)C[C@H]21` [SPE_K86882815] to `CCCCN(CCCC)C(=O)CN1C[C@H](c2ccc3c(c2)OCO3)[C@@H](C(=O)O)[C@@H]1c1ccc(OC)cc1` [SPE_K16295392], the activation at 10 µM falls from 9.44% to -6.93%.

Compared with `O=C(O)CCCNC(=O)c1cccnc1` [SPE_K56691760], `O=C(/C=C/c1cccnc1)NCCCCC1CCN(C(=O)c2ccccc2)CC1` [SPE_K58550667] is higher in activation at 10 µM: 0.477% for the first, 2.51% for the second.

Going from `COc1ccccc1N1CCN(CCN2C(=O)c3ccccc3C(C)(C)C2=O)CC1` [SPE_K93188295] to `COc1cccc(-c2cc(=O)c3ccccc3o2)c1N` [SPE_K62810658], the activation at 10 µM rises from -15% to 2.96%.

First: Nc1ncnc2c1ncn2[C@@H]1O[C@H](CO)C[C@H]1O [SPE_K65428967]
Second: Nc1nc(NCCc2ccc(O)cc2)nc2nc(-c3ccco3)nn12 [SPE_K19605405]
The activation at 10 µM of the first is lower: -10.4% for the first, -2.19% for the second.

Going from `NNC(=O)c1ccncc1` [SPE_K87202646] to `COc1ccc(/C=C/C(=O)O)cc1` [SPE_K26273521], the activation at 10 µM falls from 0.348% to -9.12%.

Compared with `CNCC(=O)O` [SPE_K51263939], `Cc1cc(OCC(=O)O)cc(C)c1Cc1ccc(O)c(C(C)C)c1` [SPE_K85406984] is lower in activation at 10 µM: -0.786% for the first, -18.6% for the second.

Compared with `Cn1cc(C(=O)C(=O)N[C@H]2CN3CCC2CC3)c2ccccc21` [SPE_K20714604], `O=S(=O)(c1cccc2c(O)nccc12)N1CCCNCC1` [SPE_K77793136] is lower in activation at 10 µM: 10.1% for the first, -5.16% for the second.

First: CC(C)(C)c1ccc(NC(=O)N2CCN(c3ncccc3Cl)CC2)cc1 [SPE_K66541497]
Second: CC(=O)NNC(=O)N1Cc2ccccc2Oc2ccc(Cl)cc21 [SPE_K52512893]
The activation at 10 µM of the first is higher: -7.73% for the first, -10.6% for the second.

Compared with `CCOC(=O)Nc1ccc2c(c1)N(C(=O)CCN(CC)CC)c1ccccc1S2` [SPE_K10667240], `CCOC(=O)Nc1ccc(NCc2ccc(F)cc2)cc1N` [SPE_K89917372] is higher in activation at 10 µM: -10.8% for the first, -6.22% for the second.

First: O=C(NC(=O)c1c(F)cccc1Cl)NC1c2ccccc2-c2ccccc21 [SPE_K24527118]
Second: Oc1cccc(Nc2ccc(Nc3cccc(O)c3)nn2)c1 [SPE_K38687824]
The activation at 10 µM of the first is higher: -7.81% for the first, -9.16% for the second.

Going from `Cc1cc2sc(NC(=O)Cc3ccccc3)nc2cc1Cl` [SPE_K47409078] to `CCN(c1ccccc1)c1cc(NC)[n+](C)c(C)n1` [SPE_K18678457], the activation at 10 µM falls from 0.438% to -5.38%.

Compared with `C=CCN1CC[C@]23c4c5ccc(O)c4O[C@H]2[C@@H](OCCOCCOCCOCCOCCOCCOCCOC)CC[C@@]3(O)[C@H]1C5` [SPE_K41458421], `CC(C)CN(C[C@@H](O)[C@H](Cc1ccccc1)NC(=O)O[C@H]1CCOC1)S(=O)(=O)c1ccc(N)cc1` [SPE_K47827687] is higher in activation at 10 µM: -3.45% for the first, 0.458% for the second.

Going from `COc1ccc(CNC(=O)Nc2ncc([N+](=O)[O-])s2)cc1` [SPE_K67860401] to `O=[N+]([O-])c1cn2c(n1)OC[C@@H](OCc1ccc(OC(F)(F)F)cc1)C2` [SPE_K96671969], the activation at 10 µM falls from -8.12% to -12.7%.

First: Cc1nc(NC(=O)N2CCC[C@H]2C(N)=O)sc1-c1ccnc(C(C)(C)C(F)(F)F)c1 [SPE_K54997624]
Second: NC(=O)c1cccc2cn(-c3ccc([C@@H]4CCCNC4)cc3)nc12 [SPE_K54955827]
The activation at 10 µM of the first is higher: 12.6% for the first, -6.71% for the second.

First: Cc1cc(C)cc(C(=O)OC2CC3CCC(C2)N3C)c1 (stereo not drawn) [SPE_A84389633]
Second: CC(C)(C)NCC(O)COc1cccc2c1CCC(=O)N2 (stereo not drawn) [SPE_A42167015]
The activation at 10 µM of the first is higher: 9.75% for the first, 2.81% for the second.

First: CC(C)C(=O)OC[C@H]1O[C@@H](n2ccc(N)nc2=O)[C@](C)(F)[C@@H]1OC(=O)C(C)C [SPE_K69726595]
Second: CC(C)OC(=O)c1cc2c(OCC(O)CNC(C)(C)C)cccc2[nH]1 (stereo not drawn) [SPE_A15530910]
The activation at 10 µM of the first is lower: -9.49% for the first, 15.8% for the second.

Going from `CC1(C)S[C@@H]2[C@H](NC(=O)C(C(=O)O)c3ccsc3)C(=O)N2[C@H]1C(=O)O` (stereo partly drawn) [SPE_A55051145] to `Cc1ccc(-n2sc(=O)n(Cc3ccc(F)cc3)c2=O)cc1` [SPE_K08893438], the activation at 10 µM rises from -6.58% to 8.86%.

`Nc1nc(NC2CC2)cc(-c2cccc(Cl)c2Cl)n1` [SPE_K01054709] gave an activation at 10 µM of -5.46%.
